Data taken from patent publication US20030118597A1 (priority 2001, published 2003).

Columns and labels:
[1] = preliminary data, animal model
[2] = system: hypophyseal adrenal system; settings: cited from earlier work
[3] = system: microsomal cyclooxygenase system; settings: animal models; cited from earlier work

Molecule | allergen component of the venom [1] | potency of released cortisol relative to hydrocortisone [2] [times] | strength relative to Indomethacine [3] [times]
CC[C@H](C)[C@H](NC(=O)CN)C(=O)NCC(=O)N[C@@H](C)C(=O)N[C@H](C(=O)N[C@@H](CC(C)C)C(=O)N[C@@H](CCCCN)C(=O)N[C@H](C(=O)N[C@@H](CC(C)C)C(=O)N[C@H](C(=O)N[C@H](C(=O)NCC(=O)N[C@@H](CC(C)C)C(=O)N1CCC[C@H]1C(=O)N[C@@H](C)C(=O)N[C@@H](CC(C)C)C(=O)N[C@H](C(=O)N[C@@H](CO)C(=O)N[C@@H](Cc1c[nH]c2ccccc12)C(=O)N[C@H](C(=O)N[C@@H](CCCCN)C(=O)N[C@@H](CCCNC(=N)N)C(=O)N[C@@H](CCCCN)C(=O)N[C@@H](CCCNC(=N)N)C(=O)N[C@@H](CCC(N)=O)C(=O)N[C@@H](CCC(N)=O)C(N)=O)[C@@H](C)CC)[C@@H](C)CC)[C@@H](C)O)[C@@H](C)O)C(C)C)C(C)C [Melittin] | major allergen component | 100 | –
Adolapin [Ado lapin] | – | – | 70
Phospholipase A2 | major allergen component | – | –
